# In EP0451772A1, “Piperidine compounds, method for preparation thereof, and a pharamceutical composition comprising the same” (HOKURIKU PHARMACEUTICAL CO., LTD., priority 1990, dated 1991):
# Where a name gives a salt, the structure may show the parent alone. Read-outs that look alike come from different tables or passages of the source.
# Experiments:
# [1] = system: passive cutaneous anaphylaxis (PCA) in rats; assay: 48 hr homologous passive cutaneous anaphylaxis (PCA) in rats; type: in vivo, Male Wistar rats; settings: Rattus norvegicus, po, read-out: the percent inhibition of PCA in rats
# Protocol: (§1) The results of 48 hr homologous passive cutaneous anaphylaxis (PCA) in rats with the monitoring of antiallergic activity and the results of potentiation of hexobarbital-induced anesthesia in mice with the monitoring of central nervous depressive activity are summarized in Table 1. The following compound was used as the reference compound. Reference compound : Ketotifen-Fumarate
# Ascaris extract coupled with 2, 4-dinitrophenyl group (DNP-As) was prepared by the method of Koda et al. (Folia pharmacol. japon., 78, 319-334, 1981) and anti-DNP-As containing IgE antibody serum was prepared by the method of Tada and Okumura (J. Immunol., 106, 1019-1025, 1971). The PCA titer of the antiserum was estimated to be 1:128 by 48 hr PCA in rats.
# Male Wistar rats weighing 160 to 200 g were sensitized passively by intradermal injection, in the back, of 0.05 ml of anti-DNP-As serum diluted 21-fold with saline. After 48 hr, the animals (18-20 hr fasted) were given iv. 0.5 ml of 1% Evans blue solution containing 1 mg of DNP-As. After an additional 30 min, the animals were killed by stunning and the skins were removed. The intensity of the response was evaluated by assaying the amount of dye leaked according to the method of Katayama et al. (Microbiol. Immunol., 22, 89-101, 1978). The percent inhibition of PCA was calculated using the following formula: [formula]
# Test compounds were given orally in a dose of 1 mg/kg 1 hr prior to challenge with antigen. As a control, 5 ml/kg of vehicle (0.5 % CMC) alone were given in a similar manner.
# [2] = system: hexobarbital-induced anesthesia in mice; design: species or system male ddY mice; settings: mouse, in vivo
# Excerpt: as §1
# The loss of righting reflex induced by hexobarbital was used as an index of anesthesia. Groups of eight male ddY mice (20-24 hr fasted) weighing 19 to 27 g were treated orally with the test compounds (30 mg/kg) or vehicle. Thirty min later, 80 mg/kg of hexobarbital sodium were injected i.p. to the animals and the duration of loss of righting reflex was observed.
# [3] = 1 mg/kg, p.o., 1 hr prior to challenge with antigen, amount of dye leaked
SMILES,"inhibition in vivo at 1 mg/kg [1, 3] [%]",the percent increase of hexobarbital-induced anesthesia in mice [2] [%],inhibition in vivo at 1 mg/kg [1] [%]
"Cl.O=C(O)CCN1CCC(=C2c3ccccc3CC(=O)c3sccc32)CC1 [Example 5, 4-(4,9-Dihydro-10-oxo-10H-benzo[4,5]cyclohepta[1,2-b]thiophen-4-ylidene)-1-piperidinepropionic Acid Hydrochloride]",75,24,
"Cl.O=C(O)CCCN1CCC(=C2c3ccccc3CC(=O)c3sccc32)CC1 [Example 6, 4-(4,9-Dihydro-10-oxo-10H-benzo[4,5]cyclohepta[1,2-b]thiophen-4-ylidene)-1-piperidinebutyric Acid Hydrochloride]",77,26,
"Cl.O=C(O)CCCCN1CCC(=C2c3ccccc3CC(=O)c3sccc32)CC1 [Example 8, 4-(4,9-Dihydro-10-oxo-10H-benzo[4,5]cyclohepta[1,2-b]thiophen-4-ylidene)-1-piperidinevaleric Acid Hydrochloride]",71,27,
"O=C(O)CCN1CCC(=C2c3ccccc3CSc3ccccc32)CC1 [Example 10, 4-(Dibenzo[b,e]thiepin-11(6H)-ylidene)-1-piperidinepropionic Acid Hydrochloride]",69,19,
"O=C(O)CCCN1CCC(=C2c3ccccc3CSc3ccccc32)CC1 [Example 13, 4-(Dibenzo[b,e]thiepin-11(6H)-ylidene)-1-piperidinebutyric Acid Hydrochloride]",58,30,
"Cl.O=C(O)CCCCN1CCC(=C2c3ccccc3CSc3ccccc32)CC1 [Example 14, 4-(Dibenzo[b,e]thiepin-11(6H)-ylidene)-1-piperidinevaleric Acid Hydrochloride]",63,19,
"Cl.O=C(O)CCCCCN1CCC(=C2c3ccccc3CSc3ccccc32)CC1 [Example 15, 4-(Dibenzo[b,e]thiepin-11(6H)-ylidene)-1-piperidinecaproic Acid Hydrochloride]",57,33,
"O=C(O)CCN1CCC(=C2c3ccccc3Sc3ccccc32)CC1 [Example 18, 4-(9H-Thioxanthen-9-ylidene)-1-piperidinepropionic Acid]",96,49,
"CN1CCC(=C2c3ccccc3CC(=O)c3sccc32)CC1 [Reference compound, 4,9-dihydro-4-(1-methyl-4-piperidinylidene)-10H-benzo[4,5]cyclohepta[1,2-b]thiophen-10-one, reference compound]",,90,56
